This note sets out measurements from US20220324865A1 (Bayer Aktiengesellschaft, priority 2018, published 2022).

Counter-ions that a name gives are not always drawn.

As usually defined, the IC50 is the concentration that gives 50% inhibition.

The test concerns the target T1, human EP3 receptor (Homo sapiens, UniProt P43115).
T1 construct: expressed in transfected cells; host or cells: CHO K1 (Chinese Hamster Ovary), stably co-transfected with Galpha16 and mitochondrial clytin
T1 sequence (P43115 1-390): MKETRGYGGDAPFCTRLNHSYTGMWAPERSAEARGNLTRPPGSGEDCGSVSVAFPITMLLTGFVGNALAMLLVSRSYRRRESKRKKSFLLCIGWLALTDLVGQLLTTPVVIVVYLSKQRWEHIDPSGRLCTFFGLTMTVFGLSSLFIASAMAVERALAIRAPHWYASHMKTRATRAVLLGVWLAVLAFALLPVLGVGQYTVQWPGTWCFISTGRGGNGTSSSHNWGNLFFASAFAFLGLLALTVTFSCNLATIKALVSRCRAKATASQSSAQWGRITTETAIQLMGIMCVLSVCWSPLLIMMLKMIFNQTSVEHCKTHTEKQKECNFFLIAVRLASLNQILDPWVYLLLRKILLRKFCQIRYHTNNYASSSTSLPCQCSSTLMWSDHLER
As to the kind of experiment: Cellular in vitro assay for determining EP3 receptor activity (human EP3 cell line, sulprostone-stimulated calcium luminescence). The format is cell-based. As to conditions: CHO cells expressing human EP3 and mitochondrial Clytin; antagonist mode, sulprostone at EC50; read-out: EP3 CHO mtCLY ANTAG IC50. The procedure, abridged:
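Antagonist activity was measured as inhibition of the luminescent calcium signal elicited by EC50 sulprostone, following 10 min compound pretreatment. The cell line was recombinant CHO K1 co-expressing human EP3, Gα16 and the photoprotein Clytin, reconstituted with coelenterazine.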
On to `Cc1ccc(-c2[nH]c(=O)c3c(C4CC4)c(C(=O)N[C@@H](c4ccc(F)cc4)C(F)(F)CO)nn3c2F)cc1Cl` [6-662], for which the IC50 is 6.1 nM.
The same measure for `CCCNC(=O)c1cc2c(=O)[nH]c(-c3ccc4cccc(F)c4c3)cn2n1` [6-40]: 7.5 nM; for `Cc1ccc(-c2cn3nc(C(=O)NC(CO)C(F)(F)F)c(C4CC4)c3c(=O)[nH]2)cc1C(F)(F)F` (racemic) [6-248]: 2.45 nM.
The value for `COc1cccc(CNC(=O)c2cc3c(=O)[nH]c(-c4ccc5ccccc5c4)cn3n2)c1` [Example 2-23, N-(3-Methoxybenzyl)-6-(2-naphthyl)-4-oxo-4,5-dihydropyrazolo[1,5-a]pyrazine-2-carboxamide] was 1.14 nM; that for `Cc1c(C(=O)NC(C)c2ccccn2)nn2c(C)c(-c3ccc4ccccc4c3)[nH]c(=O)c12` (centres unmarked) [Example 3-17, 3,7-Dimethyl-6-(2-naphthyl)-4-oxo-N-[1-(2-pyridyl)ethyl]-5H-pyrazolo[1,5-a]pyrazine-2-carboxamide] was 1.8 nM; that for `Cc1cc(-c2cn3nc(C(=O)NCC(N)C(F)(F)F)c(C4CC4)c3c(=O)[nH]2)ccc1C(F)(F)F` (single isomer, unassigned) [6-132] was 7.6 nM.
`Cc1ccc(-c2cn3nc(C(=O)NCC(O)C(F)(F)F)c(C(F)(F)F)c3c(=O)[nH]2)cc1Cl` (racemic) [6-158]: the IC50 came out at 1.55 nM.
The same measure for `Cc1cc(-c2cn3nc(C(=O)N[C@@H](c4ccc(F)cc4)C(C)(C)O)c(C4CC4(F)F)c3c(=O)[nH]2)ccc1Cl` (some centres unmarked) [6-551]: 1.7 nM; for `Cc1ccc(-c2cn3nc(C(=O)NC(C)c4ccc(O)cc4)cc3c(=O)[nH]2)cc1C` (single isomer, unassigned) [6-349]: 0.88 nM.
On to `C[C@@H](CN1CC(F)C1)NC(=O)c1nn2cc(-c3ccc4ccccc4c3)[nH]c(=O)c2c1C(F)(F)F` [6-514], for which the IC50 is 9.25 nM.
In the case of `O=C(NC1(c2ccc(F)cc2)CNC1)c1nn2cc(-c3ccc4ccccc4c3)[nH]c(=O)c2c1C(F)(F)F` [Example 1-125, N-[3-(4-Fluorophenyflazetidin-3-yl]-6-(naphthalen-2-yl)-4-oxo-3-(trifluoromethyl)-4,5-dihydropyrazolo[1,5-a]pyrazine-2-carboxamide hydrochloride], the IC50 amounted to 3.35 nM.
`CN1CC(NC(=O)c2cc3c(=O)[nH]c(-c4ccc5c(c4)CCCC5)cn3n2)(c2ccc(F)cc2)C1` [Example 1-99, N-[3-(4-Fluorophenyl)-1-methylazetidin-3-yl]-4-oxo-6-(5,6,7,8-tetrahydronaphthalen-2-yl)-4,5-dihydropyrazolo[1,5-a]pyrazine-2-carboxamide]: the IC50 stood at 4 nM.
The same measure for `Cc1ccc(-c2cn3nc(C(=O)NC(C)C(O)C(F)(F)F)cc3c(=O)[nH]2)cc1C` (centres unmarked) [6-355]: 5.8 nM; for `Cc1ccc(-c2cn3nc(C(=O)N[C@H](C)C4CC4)c(C4CC4)c3c(=O)[nH]2)cc1C` [6-438]: 0.55 nM.
The value for `Cc1c(C(=O)NC2(c3ccc(F)cc3)CN(C)C2)nn2cc(-c3ccc4ccccc4c3)[nH]c(=O)c12` [Example 1-34, N-[3-(4-Fluorophenyl)-1-methylazetidin-3-yl]-3-methyl-6-(naphthalen-2-yl)-4-oxo-4,5-dihydropyrazolo[1,5-a]pyrazine-2-carboxamide formic acid salt] was 4.18 nM; that for `Cc1ccc(-c2cn3nc(C(=O)N[C@@H](c4ccc(F)cc4)C(C)(C)O)c(C4CCC4)c3c(=O)[nH]2)cc1C` [6-577] was 2.7 nM.
Take `Cc1ccc(-c2cn3nc(C(=O)N[C@@H](C)C(C)C)c(C(F)(F)F)c3c(=O)[nH]2)cc1Cl` [6-187]: the IC50 was 1.45 nM.
Regarding `Cc1cccc2ncc(-c3cn4nc(C(=O)NC(C)c5ccc(F)cc5)c(C(C)C)c4c(=O)[nH]3)cc12` (centres unmarked) [Example 4-11, N-[1-(4-Fluorophenyl)ethyl]-3-isopropyl-6-(5-methyl-3-quinolyl)-4-oxo-5H-pyrazolo[1,5-a]pyrazine-2-carboxamide], the IC50 stood at 0.735 nM.
The same measure for `Cc1cccc2ncc(-c3cn4nc(C(=O)NC(C)(C)c5cc(Cl)cc(Cl)c5)c(C(C)C)c4c(=O)[nH]3)cc12` [Example 4-8, N-[2-(3,5-Dichlorophenyl)propan-2-yl]-6-(5-methylquinolin-3-yl)-4-oxo-3-(propan-2-yl)-4,5-dihydropyrazolo[1,5-a]pyrazine-2-carboxamide]: 4.3 nM; for `CC(C)(O)[C@@H](NC(=O)c1nn2cc(-c3ccc(Cl)c(F)c3)[nH]c(=O)c2c1C1CC(F)(F)C1)c1ccc(F)cc1` [6-555]: 3.35 nM; for `Cc1ccc(-c2cn3nc(C(=O)NCC(O)C(F)(F)F)c(C4CC4)c3c(=O)[nH]2)cc1C` (single isomer, unassigned) [6-437]: 0.77 nM.
The value for `CCN1CCC(NC(=O)c2nn3cc(-c4ccc(Cl)c(C)c4)[nH]c(=O)c3c2C2CC2)(C(F)(F)F)C1` (racemic) [6-292] was 2.05 nM; that for `COc1ccc(C(NC(=O)c2nn3cc(-c4ccc5ccccc5c4)[nH]c(=O)c3c2C#N)C2CC2)cc1` (centres unmarked) [Example 3-56, 3-Cyano-N-[cyclopropyl(4-methoxyphenyl)methyl]-6-(2-naphthyl)-4-oxo-5H-pyrazolo[1,5-a]pyrazine-2-carboxamide] was 3.15 nM; that for `Cc1cccc2ncc(-c3cn4nc(C(=O)NC(C)c5ccccn5)c(C(C)C)c4c(=O)[nH]3)cc12` (centres unmarked) [Example 4-54, 3-Isopropyl-6-(5-methyl-3-quinolyl)-4-oxo-N-[1-(2-pyridyl)ethyl]-5H-pyrazolo[1,5-a]pyrazine-2-carboxamide] was 2 nM.
Turning to `O=C(NCC(O)C(F)(F)F)c1nn2cc(-c3ccc(Cl)c(Cl)c3)[nH]c(=O)c2c1C1CC1` (single isomer, unassigned) [6-416], the IC50 came to 2.8 nM.
`Cc1ccc(-c2cn3nc(C(=O)NCC(N)C(F)(F)F)c(C4CC4)c3c(=O)[nH]2)cc1F` (single isomer, unassigned) [6-397]: the IC50 amounted to 3.45 nM.
The same measure for `Cc1cc(-c2cn3nc(C(=O)NC4(c5ccc(F)cc5)CN(C)C4)c(C4CC4)c3c(=O)[nH]2)ccc1Cl` [6-333]: 4 nM; for `Cc1ccc(-c2cn3nc(C(=O)N[C@@H](c4ccc(F)cc4)[C@@H](O)C(F)(F)F)c(C4CC4)c3c(=O)[nH]2)cc1Cl` [6-273]: 1.1 nM.
As for `CC(C)(C)OC(=O)N1CC(NC(=O)c2cc3c(=O)[nH]c(-c4ccc5c(c4)OCCO5)cn3n2)(c2ccc(F)cc2)C1` [6-54], the IC50 turned out to be 3.35 nM.
The value for `Cc1ccc(-c2cn3nc(C(=O)NC4(c5ccc(F)cc5)CN(C)C4)c(C(C)C)c3c(=O)[nH]2)cc1C` [Example 1-91, 6-(3,4-Dimethylphenyl)-N-[3-(4-fluorophenyl)-1-methylazetidin-3-yl]-4-oxo-3-(propan-2-yl)-4,5-dihydropyrazolo[1,5-a]pyrazine-2-carboxamide] was 0.915 nM; that for `N#Cc1c(C(=O)NCCn2ccc(C3CC3)n2)nn2cc(-c3ccc4ccccc4c3)[nH]c(=O)c12` [Example 3-77, 3-Cyano-N-[2-(3-cyclopropyl-1H-pyrazol-1-yl)ethyl]-6-(naphthalen-2-yl)-4-oxo-4,5-dihydropyrazolo[1,5-a]pyrazine-2-carboxamide] was 4.65 nM.
As for `O=C(N[C@H](CCO)c1ccc(F)cc1)c1cc2c(=O)[nH]c(-c3ccc4ccccc4c3)cn2n1` [Example 1-52, N-[(1R)-1-(4-Fluorophenyl)-3-hydroxpropyl]-6-(naphthalen-2-yl)-4-oxo-4,5-dihydropyrazolo-[1,5-a]pyrazine-2-carboxamide], the IC50 amounted to 6.95 nM.
The value for `Cc1ccc(-c2cn3nc(C(=O)NC4(c5ccc(F)cc5)CN(C5CC5)C4)c(C(F)(F)F)c3c(=O)[nH]2)cc1Cl` [6-203] was 1.5 nM.
Turning to `CN(CCNC(=O)c1nn2cc(-c3ccc4ccccc4c3)[nH]c(=O)c2c1C(F)(F)F)C1CC1` [6-517], the half-maximal inhibitory concentration (IC50) is 4.2 nM.
On to `COCc1c(C(=O)N[C@@H](c2ccc(F)cc2)C(C)(C)O)nn2cc(-c3ccc(Cl)c(C)c3)[nH]c(=O)c12` [6-623], for which the IC50 is 3.15 nM.
The same measure for `O=C(NC(CO)C(F)(F)F)c1nn2cc(-c3ccc(Cl)c(F)c3)[nH]c(=O)c2c1C1CC1` (single isomer, unassigned) [6-94]: 5.8 nM.
On to `CC(NC(=O)c1cc2c(=O)[nH]c(-c3ccc4ccccc4c3)cn2n1)c1ccn(C)n1` (centres unmarked) [Example 2-49, N-[1-(1-Methyl-1H-pyrazol-3-yl)ethyl]-6-(2-naphthyl)-4-oxo-4,5-dihydropyrazolo[1,5-a]pyrazine-2-carboxamide], for which the IC50 was 8.6 nM.
On to `Cc1cc(-c2cn3nc(C(=O)NC4(c5ccc(F)cc5)CN(CC(F)F)C4)c(C(F)(F)F)c3c(=O)[nH]2)ccc1Cl` [6-239], for which the IC50 was found to be 3.1 nM.
The same measure for `O=C(N[C@H]1c2ccccc2C[C@@H]1O)c1cc2c(=O)[nH]c(-c3ccc4ccccc4c3)cn2n1` [6-73]: 8.3 nM.
Turning to `COc1ccc(C(CCO)NC(=O)c2nn3c(C)c(-c4ccc5ccccc5c4)[nH]c(=O)c3c2C)cc1` (centres unmarked) [Example 3-37, N-[3-Hydroxy-1-(4-methoxyphenyl)propyl]-3,7-dimethyl-6-(2-naphthyl)-4-oxo-5H-pyrazolo[1,5-a]pyrazine-2-carboxamide], the half-inhibitory concentration (IC50) stood at 2.4 nM.
The value for `Cc1cnn(CC(C)NC(=O)c2cc3c(=O)[nH]c(-c4ccc5ccccc5c4)cn3n2)c1` (centres unmarked) [Example 2-29, N-[1-(4-Methyl-1H-pyrazol-1-yl)propan-2-yl]-6-(2-naphthyl)-4-oxo-4,5-dihydropyrazolo[1,5-a]pyrazine-2-carboxamide] was 7.25 nM.
